This passage reports TGI results from PubChem BioAssay (NCI).

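Assay format: 96-well plates, 48-hour exposure. TGI: concentration producing complete growth inhibition.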

The test system of the first assay is OVCAR-8 ovarian. As to the kind of experiment: NCI tumour cell line growth inhibition, 48 h.
`COc1ccc2c(c1)/C(=C\c1c(Cl)nc3sc(C)cn13)C(=O)N2` yielded a TGI of 15.1 µM.
In turn, `COc1cccc2c(=O)oc(-c3ccc(C(C)(C)C)cc3)nc12` yielded a TGI of over 100 µM.
For the molecule `COc1ccc2c(c1)OCC1Cc3ccccc3OC21` (stereo not drawn), the TGI is over 100 µM.
Consider `COC(=O)C1CCC(=O)N1C(c1ccc(OC)cc1)c1ccc2c(c1)OCO2` (stereo not drawn), for which the TGI was over 100 µM.
On the same count and under the same terms, for `CCN(CC)CCn1c(=O)c2cccnc2n2c3c(=O)n(C)c(=O)n(C)c3nc12` the value was over 100 µM.
Still for that read-out and setting: for `CC1=NN(c2cccc(Cl)c2)C2(C1=C/C=C/c1ccccc1)C(Cl)C(=O)N2c1nc2ccccc2s1` (stereo not drawn) the value was 62.2 µM.
The same measure, in the same setting: for `C=CCSc1nnc2cc(CN3CCCC3)c(-c3ccc(Cl)cc3)nn12` the value was 57.1 µM; for `CCOC(=O)c1cn2c(nc1=O)N[C@H]1CCCC[C@@H]12`, over 100 µM; for `CN(C)c1ccc(C(=N/N=C2\C(=O)Nc3ccccc32)c2ccc(N(C)C)cc2)cc1`, 22.4 µM.
With `Cc1ccc(C(=C2Sc3ccccc3S2)C(=C2Sc3ccccc3S2)c2ccc(C)s2)s1`, the TGI is over 100 µM.
Still for that read-out and setting: for `CSC(=S)N(C)C` the value was over 100 µM; for `O=C(CC(C(=O)c1ccsc1)c1ccc2c(c1)OCO2)c1ccccc1` (stereo not drawn), over 100 µM.
The molecule `CC1(C)CCCC2OC2CCC(C)(C)C1=O` (stereo not drawn) registered a TGI of over 100 µM.
For the molecule `NC1=NCC(CN2CCOCC2)O1` (stereo not drawn), the TGI is over 100 µM.
`CCC1(CC)C(=O)NN(C(=O)c2ccccc2)C1=O` came in with a TGI of over 100 µM.
For `COc1ccc(NC(=O)CC(=O)N2N=C(N3c4ccccc4Sc4ccccc43)CC2c2ccccc2)cc1` (stereo not drawn), the TGI was over 100 µM.
On the same count and under the same terms, next, `CCOC(=O)C1=C(C)C2C=C(c3cccs3)CC(c3ccc(Cl)cc3)=C2OC1=O` (stereo not drawn): over 100 µM.

A further assay has as its system OVCAR-5 ovarian. As to the kind of experiment: NCI tumour cell line growth inhibition, 48 h.
In turn, `COc1ccc2c(c1)/C(=C\c1c(Cl)nc3sc(C)cn13)C(=O)N2` came in with a TGI of 25.4 µM.
`COc1cccc2c(=O)oc(-c3ccc(C(C)(C)C)cc3)nc12` returned a TGI of over 100 µM.
In the case of `COc1ccc2c(c1)OCC1Cc3ccccc3OC21` (stereo not drawn), the TGI was over 100 µM.
Same read-out and setting: next, `COC(=O)C1CCC(=O)N1C(c1ccc(OC)cc1)c1ccc2c(c1)OCO2` (stereo not drawn): over 100 µM.
`CCN(CC)CCn1c(=O)c2cccnc2n2c3c(=O)n(C)c(=O)n(C)c3nc12`: the TGI is over 100 µM.
`CC1=NN(c2cccc(Cl)c2)C2(C1=C/C=C/c1ccccc1)C(Cl)C(=O)N2c1nc2ccccc2s1` (stereo not drawn): the TGI is over 71.2 µM.
On the same count and under the same terms, for `C=CCSc1nnc2cc(CN3CCCC3)c(-c3ccc(Cl)cc3)nn12` the value was 41.5 µM; for `CCOC(=O)c1cn2c(nc1=O)N[C@H]1CCCC[C@@H]12`, over 100 µM.
Still for that read-out and setting: for `CN(C)c1ccc(C(=N/N=C2\C(=O)Nc3ccccc32)c2ccc(N(C)C)cc2)cc1` the value was over 54 µM.
The same measure, in the same setting: next, `Cc1ccc(C(=C2Sc3ccccc3S2)C(=C2Sc3ccccc3S2)c2ccc(C)s2)s1`: over 100 µM.
Take `CSC(=S)N(C)C`: the TGI is over 100 µM.
Still for that read-out and setting: for `O=C(CC(C(=O)c1ccsc1)c1ccc2c(c1)OCO2)c1ccccc1` (stereo not drawn) the value was over 100 µM; for `CC1(C)CCCC2OC2CCC(C)(C)C1=O` (stereo not drawn), over 100 µM; for `NC1=NCC(CN2CCOCC2)O1` (stereo not drawn), over 100 µM.
Still for that read-out and setting: next, `CCC1(CC)C(=O)NN(C(=O)c2ccccc2)C1=O`: over 100 µM; `COc1ccc(NC(=O)CC(=O)N2N=C(N3c4ccccc4Sc4ccccc43)CC2c2ccccc2)cc1` (stereo not drawn): over 100 µM; `CCOC(=O)C1=C(C)C2C=C(c3cccs3)CC(c3ccc(Cl)cc3)=C2OC1=O` (stereo not drawn): over 100 µM.

The next assay has as its system 786-0 renal. As to the kind of experiment: NCI tumour cell line growth inhibition, 48 h.
`COc1ccc2c(c1)/C(=C\c1c(Cl)nc3sc(C)cn13)C(=O)N2` returned a TGI of 15.1 µM.
The same measure, in the same setting: for `COc1cccc2c(=O)oc(-c3ccc(C(C)(C)C)cc3)nc12` the value was over 100 µM; for `COc1ccc2c(c1)OCC1Cc3ccccc3OC21` (stereo not drawn), over 100 µM; for `COC(=O)C1CCC(=O)N1C(c1ccc(OC)cc1)c1ccc2c(c1)OCO2` (stereo not drawn), over 100 µM.
The same measure, in the same setting: next, `CCN(CC)CCn1c(=O)c2cccnc2n2c3c(=O)n(C)c(=O)n(C)c3nc12`: over 100 µM; `CC1=NN(c2cccc(Cl)c2)C2(C1=C/C=C/c1ccccc1)C(Cl)C(=O)N2c1nc2ccccc2s1` (stereo not drawn): over 55 µM; `C=CCSc1nnc2cc(CN3CCCC3)c(-c3ccc(Cl)cc3)nn12`: 33.7 µM.
On the same count and under the same terms, for `CCOC(=O)c1cn2c(nc1=O)N[C@H]1CCCC[C@@H]12` the value was over 100 µM.
`CN(C)c1ccc(C(=N/N=C2\C(=O)Nc3ccccc32)c2ccc(N(C)C)cc2)cc1` gave a TGI of 13.2 µM.
With `Cc1ccc(C(=C2Sc3ccccc3S2)C(=C2Sc3ccccc3S2)c2ccc(C)s2)s1`, the TGI is over 100 µM.
Still for that read-out and setting: for `CSC(=S)N(C)C` the value was over 100 µM; for `O=C(CC(C(=O)c1ccsc1)c1ccc2c(c1)OCO2)c1ccccc1` (stereo not drawn), over 100 µM.
In turn, `CC1(C)CCCC2OC2CCC(C)(C)C1=O` (stereo not drawn) gave a TGI of over 100 µM.
As to `NC1=NCC(CN2CCOCC2)O1` (stereo not drawn), the TGI is over 100 µM.
The same measure, in the same setting: for `CCC1(CC)C(=O)NN(C(=O)c2ccccc2)C1=O` the value was over 100 µM; for `COc1ccc(NC(=O)CC(=O)N2N=C(N3c4ccccc4Sc4ccccc43)CC2c2ccccc2)cc1` (stereo not drawn), over 100 µM.
The molecule `CCOC(=O)C1=C(C)C2C=C(c3cccs3)CC(c3ccc(Cl)cc3)=C2OC1=O` (stereo not drawn) registered a TGI of 67.1 µM.

A further assay deals with UACC-62 melanoma. Briefly: NCI tumour cell line growth inhibition, 48 h.
`COc1ccc2c(c1)/C(=C\c1c(Cl)nc3sc(C)cn13)C(=O)N2` displayed a TGI of 16.4 µM.
The same measure, in the same setting: next, `COc1cccc2c(=O)oc(-c3ccc(C(C)(C)C)cc3)nc12`: over 100 µM.
On the same count and under the same terms, next, `COc1ccc2c(c1)OCC1Cc3ccccc3OC21` (stereo not drawn): over 100 µM; `COC(=O)C1CCC(=O)N1C(c1ccc(OC)cc1)c1ccc2c(c1)OCO2` (stereo not drawn): over 100 µM; `CCN(CC)CCn1c(=O)c2cccnc2n2c3c(=O)n(C)c(=O)n(C)c3nc12`: over 100 µM.
The same measure, in the same setting: for `CC1=NN(c2cccc(Cl)c2)C2(C1=C/C=C/c1ccccc1)C(Cl)C(=O)N2c1nc2ccccc2s1` (stereo not drawn) the value was over 100 µM; for `C=CCSc1nnc2cc(CN3CCCC3)c(-c3ccc(Cl)cc3)nn12`, 27.7 µM.
On to `CCOC(=O)c1cn2c(nc1=O)N[C@H]1CCCC[C@@H]12`, for which the TGI was over 100 µM.
On the same count and under the same terms, for `CN(C)c1ccc(C(=N/N=C2\C(=O)Nc3ccccc32)c2ccc(N(C)C)cc2)cc1` the value was 33.5 µM.
Still for that read-out and setting: next, `Cc1ccc(C(=C2Sc3ccccc3S2)C(=C2Sc3ccccc3S2)c2ccc(C)s2)s1`: over 100 µM; `CSC(=S)N(C)C`: over 100 µM.
On the same count and under the same terms, next, `O=C(CC(C(=O)c1ccsc1)c1ccc2c(c1)OCO2)c1ccccc1` (stereo not drawn): over 100 µM.
On to `CC1(C)CCCC2OC2CCC(C)(C)C1=O` (stereo not drawn), for which the TGI is over 100 µM.
Same read-out and setting: next, `NC1=NCC(CN2CCOCC2)O1` (stereo not drawn): over 100 µM; `CCC1(CC)C(=O)NN(C(=O)c2ccccc2)C1=O`: over 100 µM.
On the same count and under the same terms, next, `COc1ccc(NC(=O)CC(=O)N2N=C(N3c4ccccc4Sc4ccccc43)CC2c2ccccc2)cc1` (stereo not drawn): over 100 µM; `CCOC(=O)C1=C(C)C2C=C(c3cccs3)CC(c3ccc(Cl)cc3)=C2OC1=O` (stereo not drawn): over 100 µM.

The next assay concerns TK-10 renal. Briefly: NCI tumour cell line growth inhibition, 48 h.
`COc1ccc2c(c1)/C(=C\c1c(Cl)nc3sc(C)cn13)C(=O)N2`: the TGI came to 19.1 µM.
The same measure, in the same setting: next, `COc1cccc2c(=O)oc(-c3ccc(C(C)(C)C)cc3)nc12`: over 100 µM; `COc1ccc2c(c1)OCC1Cc3ccccc3OC21` (stereo not drawn): over 100 µM.
Still for that read-out and setting: for `COC(=O)C1CCC(=O)N1C(c1ccc(OC)cc1)c1ccc2c(c1)OCO2` (stereo not drawn) the value was over 100 µM.
Turning to `CCN(CC)CCn1c(=O)c2cccnc2n2c3c(=O)n(C)c(=O)n(C)c3nc12`, the TGI turned out to be 57.4 µM.
Still for that read-out and setting: next, `CC1=NN(c2cccc(Cl)c2)C2(C1=C/C=C/c1ccccc1)C(Cl)C(=O)N2c1nc2ccccc2s1` (stereo not drawn): over 100 µM; `C=CCSc1nnc2cc(CN3CCCC3)c(-c3ccc(Cl)cc3)nn12`: 43.7 µM.
`CCOC(=O)c1cn2c(nc1=O)N[C@H]1CCCC[C@@H]12` yielded a TGI of over 100 µM.
The same measure, in the same setting: for `CN(C)c1ccc(C(=N/N=C2\C(=O)Nc3ccccc32)c2ccc(N(C)C)cc2)cc1` the value was 28.2 µM; for `Cc1ccc(C(=C2Sc3ccccc3S2)C(=C2Sc3ccccc3S2)c2ccc(C)s2)s1`, over 100 µM; for `CSC(=S)N(C)C`, over 100 µM.
Molecule `O=C(CC(C(=O)c1ccsc1)c1ccc2c(c1)OCO2)c1ccccc1` (stereo not drawn) registered a TGI of over 100 µM.
The same measure, in the same setting: next, `CC1(C)CCCC2OC2CCC(C)(C)C1=O` (stereo not drawn): over 100 µM.
`NC1=NCC(CN2CCOCC2)O1` (stereo not drawn) showed a TGI of over 100 µM.
`CCC1(CC)C(=O)NN(C(=O)c2ccccc2)C1=O` displayed a TGI of over 100 µM.
`COc1ccc(NC(=O)CC(=O)N2N=C(N3c4ccccc4Sc4ccccc43)CC2c2ccccc2)cc1` (stereo not drawn) had a TGI of over 100 µM.
On to `CCOC(=O)C1=C(C)C2C=C(c3cccs3)CC(c3ccc(Cl)cc3)=C2OC1=O` (stereo not drawn), for which the TGI is over 100 µM.

The next assay has as its system SF-268 CNS. Briefly: NCI tumour cell line growth inhibition, 48 h.
Take `COc1ccc2c(c1)/C(=C\c1c(Cl)nc3sc(C)cn13)C(=O)N2`: the TGI stood at 17.3 µM.
Turning to `COc1cccc2c(=O)oc(-c3ccc(C(C)(C)C)cc3)nc12`, the TGI was over 100 µM.
Turning to `COc1ccc2c(c1)OCC1Cc3ccccc3OC21` (stereo not drawn), the TGI is over 100 µM.
`COC(=O)C1CCC(=O)N1C(c1ccc(OC)cc1)c1ccc2c(c1)OCO2` (stereo not drawn) registered a TGI of over 100 µM.
`CCN(CC)CCn1c(=O)c2cccnc2n2c3c(=O)n(C)c(=O)n(C)c3nc12` returned a TGI of over 100 µM.
As for `CC1=NN(c2cccc(Cl)c2)C2(C1=C/C=C/c1ccccc1)C(Cl)C(=O)N2c1nc2ccccc2s1` (stereo not drawn), the TGI came out at 56.1 µM.
As for `C=CCSc1nnc2cc(CN3CCCC3)c(-c3ccc(Cl)cc3)nn12`, the TGI was determined as 46 µM.
The same measure, in the same setting: next, `CCOC(=O)c1cn2c(nc1=O)N[C@H]1CCCC[C@@H]12`: over 100 µM.
